Results on 5 substances are retold here after paper PMC12363342, “Investigating the N-terminal linker histone H1 subtypes as substrates for JmjC lysine demethylases” (RSC Chemical Biology, 2025).

Square brackets hold non-standard residues; d marks the D form. Ends that are not written are not given here. Lys(Me3) = C[N+](C)(C)CCCC[C@H](N)C(=O)O

This experiment concerns KDM5D. As to the kind of experiment: LC-MS demethylation activity assay, KDM5D. The conditions noted are these: 2 μM KDM, 10 μM H1/H3 peptide, 10 μM FAS, 100 μM LAA, 20 μM 2OG, 50 mM HEPES pH 7.5, 2 h, room temperature, T (tri-) initial methylation state. The class given is biochemical, human. The procedure, abridged:
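H1 isoform peptides (10 μM) were incubated 2 h at room temperature with 2 μM recombinant N-terminally His6-tagged catalytic domains in 50 mM HEPES pH 7.5 containing FAS (10 μM), ascorbate (100 μM) and 2OG (20 μM). Reactions were quenched with formic acid (1% final), and demethylation was analysed by LC-MS (Q-TOF).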
As to “KKKAAK[Lys(Me3)]AGGTPRKA [Peptide H1.2K26me3, 15-mer linker histone H1.2 residues 20-34 peptide, tri-methylated K26]”, the “KDM5D demethylation activity, T” value was “● [red]”.
“KKKAA[Lys(Me3)]KAGGTPRKA [Peptide H1.2K25me3, 15-mer linker histone H1.2 residues 20-34 peptide, tri-methylated K25]”: the “KDM5D demethylation activity, T” value is “● [red]”.
Consider “KKKAR[Lys(Me3)]SAGAAKRKA [Peptide H1.4K25me3, 15-mer linker histone H1.4 residues 20-34 peptide, tri-methylated K25]”, for which the “KDM5D demethylation activity, T” value was “● [red]”.
Consider “KKKATK[Lys(Me3)]AAGAGAAK [Peptide H1.5K26me3, 15-mer linker histone H1.5 residues 20-34 peptide, tri-methylated K26]”, for which the “KDM5D demethylation activity, T” value is “● [red]”.
In the case of “KKKA[Lys(Me3)]KAGATAGKRK [Peptide H1.3K24me3, 15-mer linker histone H1.3 residues 20-34 peptide, tri-methylated K24]”, the “KDM5D demethylation activity, T” value was “● [red]”.
